Data as given in patent US11365174B2 (priority 2016, dated 2022).
“Also recorded” adds a separate entry of the source. Like-named read-outs stand apart in the source and are kept apart here.

Tested on: Influenza A virus strain A/Puerto Rico/8/1934 H1N1 (PR8; amantadine-resistant)
Format: cell-based
Conditions: for potency of antiviral activity for the PR8 strain compared to amantadine or to other compounds of the class: comparison within figure; for antiviral activity for the PR8 strain (NA activity as read-out for viral protein synthesis/replication): L929 cells, 18-20 hours, fluorescence normalized to DMSO; for antiviral activity for the PR8 strain (NA activity as read-out for viral protein synthesis/replication) / selective activity against PR8 strain in first screen of docking hits: half-log dilutions; for selective activity against PR8 strain in first screen of docking hits: 1-10 uM, alongside DMSO and amantadine, normalized to DMSO

SMILES | potency of antiviral activity for the PR8 strain compared to amantadine or to other compounds of the class | antiviral activity for the PR8 strain (NA activity as read-out for viral protein synthesis/replication) | antiviral activity for the PR8 strain (NA activity as read-out for viral protein synthesis/replication) (listed as Amantadine) | selective activity against PR8 strain in first screen of docking hits
COc1ccccc1CNS(=O)(=O)c1c(C)cc([N+](=O)[O-])cc1C [JDB-0120] | the most potent inhibitors of NA activity and PR8 virus replication; also recorded: the greatest activity for small molecules; also recorded: the greatest biological activity in the sulfonamide series | – | – | –
Cc1cc([N+](=O)[O-])cc(C)c1S(=O)(=O)NCc1ccccc1Cl [JDB-0121] | the most potent inhibitors of NA activity and PR8 virus replication; also recorded: the greatest activity for small molecules; also recorded: the greatest biological activity in the sulfonamide series | – | – | –
NC12CC3CC(CC(C3)C1)C2 [amantadine, reference compound] | – | moderately inhibited PR8 replication at high enough concentrations | moderately inhibit the replication of the PR8 strain | –
COc1ccc(C2OCC3(CO)C(C)C=C(C)C2C3C)cc1 (stereo not drawn) [analog 2, [8-(4-methoxyphenyl)-2,4,9-trimethyl-7-oxabicyclo[3.3.1]non-2-en-5-yl]methanol] | more potent antiviral activity | antiviral activity for the PR8 strain | – | –
CC1=CCC2CC1C(c1ccc(O)cc1)OC2(C)C (stereo not drawn) [analog 4, 4-(2,2,6-trimethyl-3-oxabicyclo[3.3.1]non-6-en-4-yl)phenol] | the most potent; also recorded: more potent antiviral activity | antiviral activity for the PR8 strain | – | –
COc1cc(C2OCC3(CO)C(C)C=C(C)C2C3C)ccc1O (stereo not drawn) [analog 5, 4-[5-(hydroxymethyl)-2,4,9-trimethyl-7-oxabicyclo[3.3.1]non-2-en-8-yl]-2-methoxyphenol] | more potent antiviral activity | antiviral activity for the PR8 strain | – | –
Cc1cccc(CNS(=O)(=O)c2c(C)cc(C)cc2C)c1 [analog 7, 2,4,6-trimethyl-N-[(3-methylphenyl)methyl]benzenesulfonamide] | more potent antiviral activity; also recorded: more potent than amantadine | potent inhibitors of NA activity and PR8 virus replication; also recorded: antiviral activity for the PR8 strain | – | –
Cc1cc(C)c(S(=O)(=O)NCc2ccccc2Cl)c(C)c1 [analog 11, N-[(2-chlorophenyl)methyl]-2,4,6 trimethylbenzenesulfonamide] | the most potent | potent inhibitors of NA activity and PR8 virus replication; also recorded: antiviral activity for the PR8 strain | – | –
CC12CC3CC(C)(C1)CC(C(=O)Nc1ccc([N+](=O)[O-])cc1)(C3)C2 [analog 18, 3,5-dimethyl-N-(4-nitrophenyl)adamantane-1-carboxamide] | the most potent | antiviral activity for the PR8 strain | – | –
Cc1cc([N+](=O)[O-])ccc1NC(=O)CC12CC3CC(CC(C3)C1)C2 [analog 21, 2-(1-adamantyl)-N-(2-methyl-4-nitrophenyl)acetamide] | – | antiviral activity for the PR8 strain | – | –
O=[N+]([O-])c1ccc(C23CC4CC(CC(C4)C2)C3)cc1 [analog 23, 1-(4-nitrophenyl)adamantane] | – | antiviral activity for the PR8 strain | – | –
COc1ccccc1CNS(=O)(=O)c1c(C)cc(C)cc1C [analog 31, N-[(2-methoxyphenyl)methyl]-2,4,6 trimethylbenzenesulfonamide] | the greatest activity | potent inhibitors of NA activity and PR8 virus replication; also recorded: antiviral activity for the PR8 strain | – | –
Cc1cc(C)c(S(=O)(=O)NCc2ccccc2)c(C)c1 [compound 3, N-benzyl-2,4,6-trimethylbenzenesulfonamide] | more potent than amantadine | antiviral activity for the PR8 strain | – | selective activity against PR8 strain
O=C(CC12CC3CC(CC(C3)C1)C2)Nc1ccc([N+](=O)[O-])cc1 [compound 16, 2-(1-adamantyl)-N-(4-nitrophenyl)acetamide] | – | antiviral activity for the PR8 strain | – | selective activity against PR8 strain
O=[N+]([O-])c1ccc(C23CC4CC(CC(O)(C4)C2)C3)cc1 [compound 19, 3-(4-nitrophenyl)adamantan-1-ol] | – | antiviral activity for the PR8 strain | – | selective activity against PR8 strain
